Experimental data taken from ChEMBL document CHEMBL1127857, “Antitumor agents. 155. Synthesis and biological evaluation of 3',6,7-substituted 2-phenyl-4-quinolones as antimicrotubule agents” (J Med Chem, 1994).

Assays:
Tubulin = Tubulin (Bos taurus, UniProt Q6B856+Q862L2+Q862F3); assay: Inhibition of bovine tubulin polymerization; assay type: functional
Tubulin (Bos taurus) = Tubulin (Bos taurus) (UniProt Q6B856+Q862L2+Q862F3); assay: Inhibition of colchicine binding to tubulin was evaluated only when polymerization IC50 <=1.0 uM; assay type: protein assay
OVCAR-4 = assay: Tested for in vitro tumor cell growth inhibition of ovarian cancer cell line OVCAR-4; assay type: functional; details: Homo sapiens
KM-20L2 = assay: Tested for in vitro tumor cell growth inhibition of colon cancer cell line […]; assay type: functional; details: Homo sapiens
NCI-H226 = assay: Tested for in vitro tumor cell growth inhibition of non-small cell lung cancer cell line NCI-H226; assay type: functional; details: Homo sapiens
HCT-116 = assay: Tested for in vitro tumor cell growth inhibition of colon cancer cell line HCT116; assay type: functional; details: Homo sapiens
SF-268 = assay: Tested for in vitro tumor cell growth inhibition of CNS tumor cell line SF-268; assay type: functional; details: Homo sapiens
OVCAR-3 = assay: Tested for in vitro tumor cell growth inhibition of ovarian cancer cell line OVCAR-3; assay type: functional; details: Homo sapiens
K562 = assay: Tested for in vitro tumor cell growth inhibition of leukemia cell line K-562; assay type: functional; details: Homo sapiens
SF-295 = assay: Tested for in vitro tumor cell growth inhibition of CNS tumor cell line SF-295; assay type: functional; details: Homo sapiens
SK-MEL-5 = assay: Tested for in vitro tumor cell growth inhibition of melanoma cell line SK-Mel-5; assay type: functional; details: Homo sapiens
RXF 393 = assay: Tested for in vitro tumor cell growth inhibition of renal cancer cell line RXF-393; assay type: functional; details: Homo sapiens
DU-145 = assay: Tested for in vitro tumor cell growth inhibition of prostate cancer cell line DU-145; assay type: functional; details: Homo sapiens
MDA-N = assay: Tested for in vitro tumor cell growth inhibition of breast cancer cell line MDA-N; assay type: functional; details: Homo sapiens

SMILES	IC50 (Tubulin)	inhibition (Tubulin (Bos taurus))	GI50 (OVCAR-4)	GI50 (KM-20L2)	GI50 (NCI-H226)	GI50 (HCT-116)	GI50 (SF-268)	GI50 (OVCAR-3)	GI50 (K562)	GI50 (SF-295)	GI50 (SK-MEL-5)	GI50 (RXF 393)	GI50 (DU-145)	GI50 (MDA-N)
COc1ccc(CCc2cc(OC)c(OC)c(OC)c2)cc1O	630 nM	–	–	–	–	–	–	–	–	–	–	–	–	–
Oc1cc(-c2cccc(OC(F)(F)F)c2)nc2ccc(N3CCCC3)cc12	720 nM	58%	–	–	–	–	–	–	–	–	–	–	–	–
Nc1ccc2nc(-c3cccc(Cl)c3)cc(O)c2c1	6100 nM	–	> 100000 nM	3160 nM	–	–	–	–	–	–	–	–	–	–
Oc1cc(-c2cccc(F)c2)nc2cc3c(cc12)OCO3	530 nM	51%	–	–	955 nM	219 nM	661 nM	288 nM	339 nM	141 nM	269 nM	–	–	–
COc1cccc(-c2cc(O)c3cc(N)ccc3n2)c1	8700 nM	–	–	3470 nM	–	–	–	–	–	–	–	–	–	–
CNc1cccc(-c2cc(O)c3cc4c(cc3n2)OCO4)c1	650 nM	17%	–	331 nM	537 nM	245 nM	5500 nM	339 nM	398 nM	324 nM	447 nM	363 nM	–	–
COc1cccc(-c2cc(O)c3cc(N(C)C)ccc3n2)c1	380 nM	14%	5500 nM	4.57 nM	44.7 nM	–	43.6 nM	15.1 nM	8.91 nM	15.5 nM	25.7 nM	18.6 nM	34.7 nM	1.7 nM
CN(C)c1cccc(-c2cc(O)c3cc4c(cc3n2)OCO4)c1	700 nM	29%	–	–	–	–	–	–	–	–	–	–	–	–
Oc1cc(-c2cccc(OCc3ccccc3)c2)nc2cc3c(cc12)OCO3	450 nM	26%	–	224 nM	229 nM	389 nM	12900 nM	245 nM	363 nM	447 nM	282 nM	407 nM	1100 nM	145 nM
Oc1cc(-c2cccc(C(F)(F)F)c2)nc2cc3c(cc12)OCO3	820 nM	5%	–	1380 nM	–	–	–	–	–	–	–	–	–	–
CC(=O)Nc1ccc2nc(-c3cccc(Cl)c3)cc(O)c2c1	2300 nM	–	> 100000 nM	–	–	–	–	–	–	–	–	–	–	–
Nc1ccc2nc(-c3cccc(C(F)(F)F)c3)cc(O)c2c1	> 40000 nM	–	–	34700 nM	–	52500 nM	–	–	–	–	–	–	43700 nM	–
Oc1cc(-c2cccc(Br)c2)nc2cc3c(cc12)OCO3	530 nM	26%	> 100000 nM	3090 nM	3800 nM	3390 nM	3020 nM	4270 nM	3470 nM	331 nM	4370 nM	2400 nM	–	–
CCOc1cccc(-c2cc(O)c3cc4c(cc3n2)OCO4)c1	470 nM	40%	–	182 nM	324 nM	174 nM	269 nM	166 nM	44.7 nM	64.6 nM	191 nM	275 nM	251 nM	17.8 nM
COc1cccc(-c2cc(O)c3cc(N4CCOCC4)ccc3n2)c1	360 nM	43%	6310 nM	33.9 nM	33.9 nM	26.9 nM	53.7 nM	19.9 nM	24.6 nM	49 nM	35.5 nM	–	43.6 nM	8.32 nM
CC(=O)Nc1ccc2nc(-c3cccc(F)c3)cc(O)c2c1	–	–	–	–	–	–	25700 nM	–	–	38900 nM	–	–	–	–
COc1cccc(-c2cc(O)c3cc(NC(C)=O)ccc3n2)c1	2100 nM	–	–	–	–	–	5500 nM	–	–	–	–	–	–	–
Nc1cccc(-c2cc(O)c3cc4c(cc3n2)OCO4)c1	730 nM	16%	38900 nM	708 nM	2190 nM	479 nM	759 nM	–	891 nM	2400 nM	933 nM	603 nM	–	–
COc1cccc(-c2cc(O)c3cc(N4CCN(C)CC4)ccc3n2)c1	14000 nM	–	> 10000 nM	1510 nM	1510 nM	437 nM	1860 nM	–	537 nM	1820 nM	912 nM	457 nM	2510 nM	200 nM
COc1cccc(-c2cc(O)c3cc(Cl)ccc3n2)c1	700 nM	16%	–	–	–	–	–	–	–	–	–	–	–	–
Oc1cc(-c2cccc(OC(F)(F)F)c2)nc2cc3c(cc12)OCO3	500 nM	40%	25.7 nM	36.3 nM	195 nM	14.1 nM	–	63.1 nM	36.3 nM	25.7 nM	170 nM	40.7 nM	45.7 nM	< 10 nM
COc1cc([C@@H]2c3cc4c(cc3[C@H](O)[C@H]3COC(=O)[C@H]23)OCO4)cc(OC)c1OC	–	84%	–	–	–	–	–	–	–	–	–	–	–	–
Oc1cc(-c2cccc(Cl)c2)nc2cc3c(cc12)OCO3	370 nM	45%	> 75900 nM	269 nM	–	–	–	–	–	–	209 nM	–	–	–
Oc1cccc(-c2cc(O)c3cc4c(cc3n2)OCO4)c1	470 nM	26%	–	3310 nM	–	1820 nM	2290 nM	–	724 nM	5500 nM	1480 nM	–	–	–
COc1cccc(-c2cc(O)c3cc4c(cc3n2)OCO4)c1	570 nM	39%	–	–	–	–	–	–	–	–	–	–	–	–
Oc1cc(-c2ccccc2)nc2cc3c(cc12)OCO3	630 nM	26%	–	–	–	–	–	–	–	–	–	–	–	–
COc1cccc(-c2cc(O)c3cc(N4CCCC4)ccc3n2)c1	–	–	2000 nM	< 1 nM	< 1 nM	< 1 nM	< 1 nM	< 1 nM	< 1 nM	< 1 nM	< 1 nM	< 1 nM	< 1 nM	< 1 nM
